Data published in article PMC5522258 (Oncotarget, 2017).
Where “and” joins values, the source holds several entries; their conditions need not be identical. Equal entries are not always repeated. Where two headings read alike, the source gives them in different places. Each block holds one compound with its values, some of them ahead of it.

Assays:
UGT1A9 = target: T1, UGT1A9 (Homo sapiens, UniProt O60656); assay: SN-38 glucuronidation by human recombinant UGT1A9, with and without vorinostat; format: in vitro ADME
T1 construct: purchased BD Gentest
T1 sequence (O60656 26-530): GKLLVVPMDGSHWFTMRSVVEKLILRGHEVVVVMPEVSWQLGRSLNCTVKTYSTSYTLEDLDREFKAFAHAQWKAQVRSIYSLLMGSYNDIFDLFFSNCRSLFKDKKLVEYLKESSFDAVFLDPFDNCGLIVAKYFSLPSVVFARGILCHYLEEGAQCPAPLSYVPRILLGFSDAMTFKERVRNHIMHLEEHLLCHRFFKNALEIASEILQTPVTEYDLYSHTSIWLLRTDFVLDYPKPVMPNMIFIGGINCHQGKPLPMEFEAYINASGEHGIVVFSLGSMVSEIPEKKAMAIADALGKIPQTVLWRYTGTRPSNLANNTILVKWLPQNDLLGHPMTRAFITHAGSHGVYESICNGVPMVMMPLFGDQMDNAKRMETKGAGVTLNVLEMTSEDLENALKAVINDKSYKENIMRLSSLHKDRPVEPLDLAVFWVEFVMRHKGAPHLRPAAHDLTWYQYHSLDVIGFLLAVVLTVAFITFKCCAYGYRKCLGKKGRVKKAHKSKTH
Description: (§1) All experiments were carried out in triplicate. […] Data were considered statistically significant when p < 0.05.

UGT1A1 [1] = assay: SN-38 glucuronidation by pooled HLMs, 50 donor pool (wild type, 6/6), with and without belinostat; format: in vitro ADME, human; conditions: human, pH 7.4; 50 donor pool HLMs (6/6), without belinostat; read-out: intrinsic clearance (CLint) of SN-38G formation
Description: as §1

[2] = system: pooled HLMs (50 donor pool, wild-type 6/6 genotype); assay: as above; format: in vitro ADME, human; conditions: for decrease of CLint: 50 donor pool HLMs (6/6), p < 0.05
Description: as §1

UGT1A1 [3] = target: T2, UGT1A1 (Homo sapiens, UniProt P22309); assay: in vitro; conditions: pooled liver microsomes, UGT1A1*1*28 (6/7) genotype, pH 7.4
T2 sequence (P22309 26-533): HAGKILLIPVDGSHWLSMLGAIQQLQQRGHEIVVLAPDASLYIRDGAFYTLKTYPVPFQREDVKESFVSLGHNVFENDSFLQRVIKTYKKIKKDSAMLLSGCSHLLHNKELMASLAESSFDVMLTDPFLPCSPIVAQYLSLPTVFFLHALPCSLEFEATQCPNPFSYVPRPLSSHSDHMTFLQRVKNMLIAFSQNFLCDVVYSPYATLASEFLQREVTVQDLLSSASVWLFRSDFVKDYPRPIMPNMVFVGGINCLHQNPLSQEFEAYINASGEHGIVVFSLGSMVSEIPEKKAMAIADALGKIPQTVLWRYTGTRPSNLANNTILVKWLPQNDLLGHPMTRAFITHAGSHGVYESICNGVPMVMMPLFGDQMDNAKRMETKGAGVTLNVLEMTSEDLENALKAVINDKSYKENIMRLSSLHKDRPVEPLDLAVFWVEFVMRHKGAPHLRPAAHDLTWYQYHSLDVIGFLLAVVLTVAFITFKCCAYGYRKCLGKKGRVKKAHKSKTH
Description: (§3) Ten microliter aliquots were injected into a high-performance liquid chromatograph assay system (Agilent 1100, Germany) with tandem mass spectrometric detection (API 4000 triple-quadrupole mass spectrometer; AB Sciex, Concord, Canada). Baseline separation of the analytes was achieved on the Alltima C18 (150 mm x 2.1 mm, 5 μm) column. The mobile phase A and B consisted of 100% acetonitrile and 0.1% formic acid, respectively.
(§4) After pre-incubation, the reaction was started with the addition of UGT1A1 or pooled HLMs (0.5 mg/mL). Reaction mixtures were incubated at 37°C for 30 minutes.
(§5) All experiments were carried out in triplicate. SN-38G formation velocity (ν) was calculated as Cm, 30 min/incubation time/microsomal protein concentration, where Cm, 30 min was the metabolite concentration after 30 min incubation. Plots of substrate concentration, S (X axis) versus ν (Y axis) were then constructed. Km and Vmax were calculated by the Michaelis-Menten Equation 1 below using GraphPad software v5.01 (GraphPad Software, Inc., San Diego, CA, USA). The kinetic parameter Vmax/Km, which is equivalent to intrinsic clearance (CLint) (Equation 2), was derived from the slope of the plot of the rate of product formation versus substrate concentration. Comparisons of CLint between two groups were performed by a paired t-test.

UGT1A1 [4] = target: T2, UGT1A1; assay: in vitro; conditions: pooled liver microsomes, UGT1A1*28*28 (7/7) genotype, pH 7.4
Description: as §3, §4, §5

UGT1A1 [5] = target: T2, UGT1A1; assay: SN-38 glucuronidation (SN-38G formation) by human recombinant UGT1A1, with and without HDACi; format: in vitro ADME; conditions: for decrease of CLint: p < 0.05
Description: (§2) UGT1A1, UGT1A6 and UGT1A7 were chosen since these UGTs could be responsible for glucuronidating panobinostat.
as §1

[6] = more potent than irinotecan; cited from earlier work
[7] = cited from earlier work
[8] = target: T3, pooled HLMs (UGT1A1*1*28 allelic variant, 6/7) (Homo sapiens, UniProt P22309)
T3 sequence (P22309 26-533): T2 sequence (P22309 26-533)
Description: as §3, §4, §5

[9] = target: T4, pooled HLMs (UGT1A1*28*28 allelic variant, 7/7) (Homo sapiens, UniProt P22309)
T4 sequence (P22309 26-533): T2 sequence (P22309 26-533)
Description: as §3, §4, §5

UGT1A7 = target: T5, UGT1A7 (Homo sapiens, UniProt Q9HAW7); assay: SN-38 glucuronidation by human recombinant UGT1A7, with and without panobinostat; format: in vitro ADME; conditions: UGT1A7, panobinostat 20 and 200 nmol/L; CLint increases insignificant (p > 0.05)
T5 construct: purchased BD Gentest
T5 sequence (Q9HAW7 26-530): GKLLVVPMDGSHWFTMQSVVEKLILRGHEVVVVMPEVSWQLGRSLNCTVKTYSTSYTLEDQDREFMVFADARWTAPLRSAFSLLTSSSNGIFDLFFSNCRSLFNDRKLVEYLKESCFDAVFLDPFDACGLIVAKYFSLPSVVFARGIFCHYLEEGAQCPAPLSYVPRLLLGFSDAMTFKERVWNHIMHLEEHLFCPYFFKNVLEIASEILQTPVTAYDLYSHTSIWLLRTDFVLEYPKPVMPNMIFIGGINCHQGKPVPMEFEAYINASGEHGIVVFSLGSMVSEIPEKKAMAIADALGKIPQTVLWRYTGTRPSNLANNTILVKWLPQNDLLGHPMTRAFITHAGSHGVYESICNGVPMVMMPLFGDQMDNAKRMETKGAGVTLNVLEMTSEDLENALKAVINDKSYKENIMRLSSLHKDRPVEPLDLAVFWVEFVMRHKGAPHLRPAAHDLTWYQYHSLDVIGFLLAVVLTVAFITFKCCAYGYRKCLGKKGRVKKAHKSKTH
Description: as §2, §1

UGT1A6 = target: T6, UGT1A6 (Homo sapiens, UniProt P19224); assay: SN-38 glucuronidation by human recombinant UGT1A6, with and without panobinostat; format: in vitro ADME; conditions: UGT1A6, panobinostat 20 and 200 nmol/L; CLint increases insignificant (p > 0.05)
T6 construct: purchased BD Gentest
T6 sequence (P19224 27-532): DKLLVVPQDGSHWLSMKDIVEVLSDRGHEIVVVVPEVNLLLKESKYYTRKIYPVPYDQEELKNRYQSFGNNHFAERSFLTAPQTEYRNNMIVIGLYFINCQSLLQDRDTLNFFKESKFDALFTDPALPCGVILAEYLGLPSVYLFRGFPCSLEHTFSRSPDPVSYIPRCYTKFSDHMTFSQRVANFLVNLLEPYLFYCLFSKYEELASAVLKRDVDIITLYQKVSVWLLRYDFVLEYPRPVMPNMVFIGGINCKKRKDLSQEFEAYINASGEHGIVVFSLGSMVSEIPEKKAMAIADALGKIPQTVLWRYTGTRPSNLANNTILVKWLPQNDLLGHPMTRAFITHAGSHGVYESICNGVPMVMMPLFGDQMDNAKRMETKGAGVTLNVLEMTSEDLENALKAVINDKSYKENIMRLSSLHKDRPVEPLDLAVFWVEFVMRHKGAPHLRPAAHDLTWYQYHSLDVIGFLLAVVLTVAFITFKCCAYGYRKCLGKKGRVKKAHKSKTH
Description: as §2, §1

- inhibition of UGT1A9 (SN-38 glucuronidation) (UGT1A9; vorinostat 2 µmol/L (therapeutic concentration)): no significant inhibition
Compound: O=C(CCCCCCC(=O)Nc1ccccc1)NO [vorinostat]

- microsomal CLint (UGT1A9; human, recombinant UGT1A9, read-out: CLint of SN-38G): 7.48 µL/min/mg
- microsomal CLint (UGT1A1 [1]): 81.2 µL/min/mg
- microsomal CLint (UGT1A1 [3]): 29.2 µL/min/mg
- microsomal CLint (UGT1A1 [4]): 5.4 µL/min/mg
- microsomal CLint (UGT1A1 [5]; human, pH 7.4, recombinant UGT1A1, without belinostat, read-out: intrinsic clearance (CLint) of SN-38G formation): 21.6 µL/min/mg
Compound: CCc1c2c(nc3ccc(O)cc13)-c1cc3c(c(=O)n1C2)COC(=O)[C@]3(O)CC [SN-38, 7-ethyl-10-hydroxycamptothecin]
- SN-38 glucuronidation activity (Vmax) ([2]; HLMs wild type 6/6, without belinostat): 41.13 pmol/min/mg
- potency relative to irinotecan [6]: 100-1000 times

- decrease of CLint ([2]; belinostat 100 μmol/L vs none): 56%
- decrease of CLint ([2]; belinostat 200 μmol/L vs none): 68%
- inhibition type (UGT1A1 [5]; SN-38 glucuronidation by UGT1A1): non-competitive
- interaction with irinotecan (SN-38 glucuronidation) (UGT1A1 [5]; belinostat 10 μmol/L, simulating oral dosing): would not have significant interactions
- decrease of CLint (UGT1A1 [5]; recombinant UGT1A1, belinostat 100 μmol/L vs no belinostat): ~ 62%
- decrease of CLint (UGT1A1 [5]; recombinant UGT1A1, belinostat 200 μmol/L vs no belinostat): 81%
- Vmax of SN-38 glucuronidation (UGT1A1 [5]; recombinant UGT1A1, with belinostat (abstract: 100 and 200 µmol/L; lowest value, taken as 200 µmol/L)): 1.95 pmol/min/mg
- inhibition type ([8]; SN-38 glucuronidation by HLMs (6/7)): non-competitive inhibition
- decrease of SN-38G formation rate compared to wild type ([8]; UGT1A1*1*28 (6/7) HLMs vs wild type 6/6, both with belinostat 200 μmol/L): ~ 64%
- decrease of CLint ([8]; UGT1A1*1*28 (6/7) HLMs, belinostat 200 μmol/L vs none, p < 0.05): 79%
- rate of SN-38G formation (Vmax) ([8]; UGT1A1*1*28 (6/7) HLMs, with belinostat 200 μmol/L): 3.77 pmol/min/mg
- inhibition type ([9]; SN-38 glucuronidation by HLMs (7/7)): non-competitive inhibition
- decrease of SN-38G formation rate compared to wild type ([9]; UGT1A1*28*28 (7/7) HLMs vs wild type 6/6, both with belinostat 200 μmol/L): ~ 64% and ~ 68%
- decrease of CLint ([9]; UGT1A1*28*28 (7/7) HLMs, belinostat 200 μmol/L vs none, p < 0.05): 75%
- rate of SN-38G formation (Vmax) ([9]; UGT1A1*28*28 (7/7) HLMs, with belinostat 200 μmol/L): 3.30 pmol/min/mg
Compound: O=C(/C=C/c1cccc(S(=O)(=O)Nc2ccccc2)c1)NO [belinostat]
- SN-38 glucuronidation activity (Vmax) ([2]; HLMs wild type 6/6, with belinostat 200 µmol/L): 10.54 pmol/min/mg
- inhibition type ([2]; SN-38 glucuronidation by HLMs (6/6)): non-competitive inhibition
- Cmax ([7]; high-dose intravenous administration): 200 µM
- Cmax ([7]; oral administration): 10 µM

- inhibitory effect on SN-38 glucuronidation (UGT1A7): not found to have any inhibitory effect
- inhibitory effect on SN-38 glucuronidation (UGT1A1 [5]; UGT1A1, panobinostat 20 and 200 nmol/L, CLint increases insignificant (p > 0.05)): not found to have any inhibitory effect
- inhibitory effect on SN-38 glucuronidation (UGT1A6): not found to have any inhibitory effect
Compound: Cc1[nH]c2ccccc2c1CCNCc1ccc(/C=C/C(=O)NO)cc1 [panobinostat]
- Cmax ([7]; intravenous administration): 0.2 µM
- Cmax ([7]; oral administration): 0.02 µM
